Experimental data from ChEMBL document CHEMBL2163273, “Orally active adenosine A(1) receptor agonists with antinociceptive effects in mice” (J Med Chem, 2012).
Blank lines part the entries; values can stand above or below the compound they belong to. Active and inactive are the calls of the source. The rule behind the calls is not given here.

Columns and labels:
[1] = molecular target: T1, Adenosine receptor A1 (Homo sapiens, UniProt P30542); assay: Agonist activity at human A1AR expressed in HEK293T/17 cells assessed as inhibition of isoproterenol-induced cAMP accumulation incubated for 10 mins by luciferase reporter assay; type: functional, cell-based, HEK-293T
T1 sequence (P30542 whole entry): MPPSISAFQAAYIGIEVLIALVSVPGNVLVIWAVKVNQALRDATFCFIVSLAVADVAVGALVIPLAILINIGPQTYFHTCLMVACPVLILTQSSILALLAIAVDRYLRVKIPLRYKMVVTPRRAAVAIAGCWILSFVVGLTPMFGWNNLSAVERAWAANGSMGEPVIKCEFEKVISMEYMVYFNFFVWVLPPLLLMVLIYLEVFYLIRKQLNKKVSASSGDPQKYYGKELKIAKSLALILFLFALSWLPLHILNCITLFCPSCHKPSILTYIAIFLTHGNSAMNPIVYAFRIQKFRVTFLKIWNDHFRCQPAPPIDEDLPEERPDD

[2] = system: Mus musculus; assay: Antinociceptive effect in intrathecally dosed C57BL/6 mouse assessed as inhibition of noxious thermal sensitivity by measuring paw withdrawal latency; type: functional, organism-based
[3] = system: Mus musculus; assay: Antinociceptive effect in A1AR knock out C57BL/6 mouse assessed as inhibition of noxious thermal sensitivity by measuring paw withdrawal latency at 5 nmol/kg, it; type: functional, organism-based
[4] = molecular target: T1, Adenosine receptor A1; assay: Agonist activity at human A1AR assessed as induction of Ca2+ ion mobilization by orthogonal functional assay
[5] = species on record: Homo sapiens; assay: Selectivity ratio of Ki for human A3AR to Ki for human A1AR
[6] = species on record: Homo sapiens; assay: Selectivity ratio of Ki for human A2AR to Ki for human A1AR
[7] = system: Mus musculus; assay: Cardiovascular toxicity in A1AR knock out C57BL/6 mouse assessed as change in body temperature at 5000 nmol/kg, po; type: organism-based; details: in vivo
[8] = system: Mus musculus; assay: Antinociceptive effect in intravenously dosed C57BL/6 mouse assessed as inhibition of noxious thermal sensitivity by measuring paw withdrawal latency; type: functional, organism-based
[9] = system: Mus musculus; assay: Antinociceptive effect in orally dosed C57BL/6 mouse assessed as inhibition of noxious thermal sensitivity by measuring paw withdrawal latency; type: functional, organism-based
[10] = molecular target: T2, Adenosine receptor A2b (Homo sapiens) (UniProt P29275); assay: Displacement of [3H]2-chloro-N6-cyclopentyladenosine from human A2BR at 50 uM
T2 sequence (whole entry): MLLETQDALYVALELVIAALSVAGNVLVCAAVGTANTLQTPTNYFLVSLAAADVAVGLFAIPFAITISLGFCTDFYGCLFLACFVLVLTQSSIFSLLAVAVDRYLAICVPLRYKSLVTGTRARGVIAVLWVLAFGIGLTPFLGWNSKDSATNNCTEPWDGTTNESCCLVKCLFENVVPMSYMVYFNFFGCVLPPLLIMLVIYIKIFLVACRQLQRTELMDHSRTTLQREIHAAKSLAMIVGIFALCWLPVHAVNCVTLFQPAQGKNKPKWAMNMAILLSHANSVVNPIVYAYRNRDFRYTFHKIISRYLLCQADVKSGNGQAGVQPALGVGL

[11] = molecular target: Adenosine receptor A2a (Homo sapiens, UniProt P29274); assay: Displacement of [3H]2-chloro-N6-cyclopentyladenosine from human A2AR
[12] = system: Mus musculus; assay: Cardiovascular toxicity in A1AR knock out C57BL/6 mouse assessed as change in heart rate at 5000 nmol/kg, po; type: organism-based; details: in vivo
[13] = system: Mus musculus; assay: Cardiovascular toxicity in C57BL/6 mouse assessed as change in heart rate at 5000 nmol/kg, po; type: organism-based; details: in vivo
[14] = molecular target: T1, Adenosine receptor A1; assay: Displacement of [3H]2-chloro-N6-cyclopentyladenosine from human A1AR
[15] = system: Mus musculus; assay: Cardiovascular toxicity in C57BL/6 mouse assessed as change in body temperature at 5000 nmol/kg, po; type: organism-based; details: in vivo
[16] = molecular target: T3, Adenosine receptor A3 (Homo sapiens, UniProt P0DMS8); assay: Displacement of [3H]2-chloro-N6-cyclopentyladenosine from human A3AR
T3 sequence (P0DMS8 whole entry): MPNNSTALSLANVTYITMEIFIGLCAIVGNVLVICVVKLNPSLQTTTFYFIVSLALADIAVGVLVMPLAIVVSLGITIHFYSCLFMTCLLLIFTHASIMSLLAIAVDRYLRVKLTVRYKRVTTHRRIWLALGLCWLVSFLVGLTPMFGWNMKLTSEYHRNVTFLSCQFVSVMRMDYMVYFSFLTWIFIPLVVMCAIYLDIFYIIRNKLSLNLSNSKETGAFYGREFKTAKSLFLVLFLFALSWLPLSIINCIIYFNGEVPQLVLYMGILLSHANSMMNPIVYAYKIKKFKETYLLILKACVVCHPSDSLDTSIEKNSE

[17] = molecular target: T1, Adenosine receptor A1; assay: Agonist activity at human A1AR expressed in HEK293T/17 cells assessed as inhibition of forskolin-induced cAMP accumulation incubated for 10 mins by luciferase reporter assay; type: functional, cell-based, HEK-293T
[18] = molecular target: T2, Adenosine receptor A2b (Homo sapiens); assay: Displacement of [3H]2-chloro-N6-cyclopentyladenosine from human A2BR at 10 uM

Chain of Adenosine receptor A2a (P29274 whole entry): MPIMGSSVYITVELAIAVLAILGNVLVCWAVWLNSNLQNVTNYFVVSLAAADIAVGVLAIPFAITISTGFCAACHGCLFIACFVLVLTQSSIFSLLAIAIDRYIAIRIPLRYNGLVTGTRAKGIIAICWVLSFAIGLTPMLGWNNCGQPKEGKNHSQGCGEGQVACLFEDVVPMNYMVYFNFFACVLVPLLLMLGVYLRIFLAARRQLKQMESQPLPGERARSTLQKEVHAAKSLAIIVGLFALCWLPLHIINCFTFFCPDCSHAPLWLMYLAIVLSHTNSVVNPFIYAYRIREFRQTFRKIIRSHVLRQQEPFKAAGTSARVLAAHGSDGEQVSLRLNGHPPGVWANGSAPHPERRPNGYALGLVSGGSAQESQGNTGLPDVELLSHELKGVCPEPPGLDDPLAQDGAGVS

EC50 [1]: 6100 nM
SMILES: O=P(OCCc1ccccc1)(OCCc1ccccc1)OC[C@H]1O[C@@H](n2cnc3c(NC4CCCC4)nc(Cl)nc32)[C@H](O)[C@@H]1O

EC50 [1]: 550 nM
SMILES: OCC(Cc1ccccc1)Nc1nc(Cl)nc2c1ncn2[C@@H]1O[C@H](CO)[C@@H](O)[C@H]1O (mixture of isomers)

EC50 [1]: 530 nM
SMILES: CCOC(=O)CNP(=O)(NCC(=O)OCC)OC[C@H]1O[C@@H](n2cnc3c(NC4CCCC4)nc(Cl)nc32)[C@H](O)[C@@H]1O

EC50 [1]: 1500 nM
SMILES: O=P(O)(O)OCC(Cc1ccccc1)Nc1nc(Cl)nc2c1ncn2[C@@H]1O[C@H](CO)[C@@H](O)[C@H]1O (mixture of isomers)

EC50 [4]: 21 nM | Ratio Ki [5]: 52 | Ki [11]: 1.6 µM | Ki [14]: 25 nM | EC50 [1]: 72 nM | Ki [16]: 1300 nM | inhibition [18]: 0%
SMILES: O=P(O)(O)OC[C@H]1O[C@@H](n2cnc3c(NC4CCCC4)nc(Cl)nc32)[C@H](O)[C@@H]1O

Second part, the compound before the results:

SMILES: Nc1ncnc2c1ncn2[C@@H]1O[C@H](COP(=O)(O)O)[C@@H](O)[C@H]1O [ADENOSINE PHOSPHATE]
EC50 [1]: 500 nM

SMILES: COP(=O)(OC)OC[C@H]1O[C@@H](n2cnc3c(NC4CCCC4)nc(Cl)nc32)[C@H](O)[C@@H]1O
Activity [2]: Dose-dependent effect | Activity [3]: inactive | EC50 [4]: 520 nM | Ratio Ki [5]: 12 | Ratio Ki [6]: 130 | Activity [7]: Non-toxic | Activity [8]: Dose-dependent effect | Activity [9]: Dose-dependent effect | inhibition [10]: 7% | Ki [11]: 4.7 µM | Activity [12]: Non-toxic | Activity [13]: Non-toxic | Ki [14]: 36 nM | EC50 [1]: 1400 nM | Activity [15]: Non-toxic | Ki [16]: 450 nM

SMILES: OC[C@H]1O[C@@H](n2cnc3c(N[C@H]4CCC[C@@H]4O)ncnc32)[C@H](O)[C@@H]1O [GR-79236]
EC50 [17]: 5.9 nM

SMILES: CCOP(=O)(OCC)OC[C@H]1O[C@@H](n2cnc3c(NC4CCCC4)nc(Cl)nc32)[C@H](O)[C@@H]1O
EC50 [1]: > 10000 nM

SMILES: Nc1ncnc2c1ncn2[C@@H]1O[C@H](CO)[C@@H](OP(=O)(O)O)[C@H]1O
EC50 [1]: 440 nM

SMILES: OC[C@H]1O[C@@H](n2cnc3c(NC4CCCC4)ncnc32)[C@H](O)[C@@H]1O [N6-CYCLOPENTYLADENOSINE]
Activity [7]: Non-toxic | Activity [9]: Dose-dependent effect | Activity [12]: Non-toxic | Activity [13]: Toxic | Activity [15]: Toxic

SMILES: O=P(O)(O)O[C@@H]1CCC[C@H]1Nc1nc(Cl)nc2c1ncn2[C@@H]1O[C@H](CO)[C@@H](O)[C@H]1O
EC50 [17]: 120 nM

SMILES: COP(=O)(OC)O[C@@H]1CCC[C@H]1Nc1nc(Cl)nc2c1ncn2[C@@H]1O[C@H](CO)[C@@H](O)[C@H]1O
EC50 [17]: > 10000 nM

SMILES: O=P(O)(O)OC[C@H]1O[C@@H](n2cnc3c(NC4CCCC4)ncnc32)[C@H](O)[C@@H]1O
EC50 [1]: 100 nM

SMILES: Nc1ncnc2c1ncn2[C@@H]1O[C@H](CO)[C@@H](O)[C@H]1OP(=O)(O)O
EC50 [1]: 490 nM

SMILES: COP(=O)(OC)OC[C@H]1O[C@@H](n2cnc3c(NC4CCCC4)ncnc32)[C@H](O)[C@@H]1O
EC50 [1]: 4400 nM

SMILES: COP(=O)(OC)OCC(Cc1ccccc1)Nc1nc(Cl)nc2c1ncn2[C@@H]1O[C@H](CO)[C@@H](O)[C@H]1O (mixture of isomers)
EC50 [1]: 5400 nM
